Results as given in patent US20100267561A1, “HERBICIDAL PYRIDAZINONE DERIVATIVES” (priority 2007, published 2010).

Assays:
Type in all cases: in vivo
[1] = system: Italian ryegrass (Lolium multiflorum); assay: Test B pre-/postemergence plant response; conditions: for Ryegrass, Italian plant response rating: 8 g ai/ha
How it was run: (§1)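 Seeds were sown and sprayed preemergence, while plants at 2 to 18 cm (1- to 4-leaf stage) got postemergence sprays. Compounds were formulated in a non-phytotoxic solvent mixture with surfactant. After 13 to 15 days in a greenhouse, injury was rated visually against untreated controls, 0 (no effect) to 100 (complete control).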

[2] = system: Russian thistle (Salsola iberica); assay: Test B pre-/postemergence plant response; conditions: Preemergence
How it was run: as §1

[3] = system: bermudagrass (Cynodon dactylon); assay: Test B pre-/postemergence plant response; conditions: for Bermudagrass plant response rating: 8 g ai/ha
How it was run: as §1

[4] = system: cocklebur (Xanthium strumarium); assay: Test B pre-/postemergence plant response; conditions: for Cocklebur plant response rating: 8 g ai/ha
How it was run: as §1

[5] = system: common ragweed (Ambrosia elation); assay: Test B pre-/postemergence plant response; conditions: for Ragweed plant response rating: 8 g ai/ha
How it was run: as §1

[6] = system: goosegrass (Eleusine indica); assay: Test B pre-/postemergence plant response; conditions: for Goosegrass plant response rating: 8 g ai/ha
How it was run: as §1

[7] = system: lambsquarters (Chenopodium album); assay: Test B pre-/postemergence plant response; conditions: for Lambsquarters plant response rating: 8 g ai/ha
How it was run: as §1

[8] = system: large crabgrass (Digitaria sanguinalis); assay: Test B pre-/postemergence plant response; conditions: for Crabgrass, Large plant response rating: 8 g ai/ha
How it was run: as §1

soybean (Glycine max) = assay: Test B pre-/postemergence plant response; conditions: for Soybean plant response rating: 8 g ai/ha
How it was run: as §1

[9] = system: velvetleaf (Abutilon theophrasti); assay: Test B pre-/postemergence plant response; conditions: for Velvetleaf plant response rating: 8 g ai/ha
How it was run: as §1

[10] = system: barnyardgrass (Echinochloa crus-galli); assay: Test B flooded paddy test plant response
How it was run: (§2)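 Paddy-water application to 2-leaf plants in pots held under 3 cm of flooding; response is a 0–100 visual control rating against controls after 13 to 15 days, and a dash marks a missing result.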

[11] = system: ducksalad (Heteranthera limosa); assay: Test B flooded paddy test plant response
How it was run: as §2

rice (Oryza sativa) = assay: Test B flooded paddy test plant response
How it was run: as §2

[12] = system: umbrella sedge (Cyperus difformis); assay: Test B flooded paddy test plant response
How it was run: as §2

[13] = Postemergence, 16 g ai/ha, scale 0 to 100
[14] = Postemergence, 31 g ai/ha, scale 0 to 100, 0 no effect, 100 complete control
[15] = Postemergence, 62 g ai/ha, scale 0 to 100, 0 no effect, 100 complete control
[16] = Preemergence, 16 g ai/ha, scale 0 to 100 (0 no effect, 100 complete control)
[17] = Preemergence, 31 g ai/ha, scale 0 to 100 (0 no effect, 100 complete control)
[18] = Preemergence, 62 g ai/ha, scale 0 to 100
[19] = Preemergence, 31 g ai/ha, 0 to 100 scale, 0 no effect, 100 complete control
[20] = Flood (flooded paddy test), 62 g ai/ha, scale 0 to 100, 0 no effect, 100 complete control
[21] = Flood (flooded paddy test), 125 g ai/ha, scale 0 to 100, 0 no effect, 100 complete control
[22] = Flood, 31 g ai/ha, scale 0 to 100
[23] = Flood (flooded paddy test), 250 g ai/ha, scale 0 to 100, 0 no effect, 100 complete control

`CCCc1cc(-c2ccc(Cl)cc2)nn1-c1c(O)cnn(C)c1=O` [Compound 43] was tested, and the “Ryegrass, Italian plant response rating” value ([1]; postemergence, 0-100 scale) was 80, the “Plant response rating, Ryegrass, Italian” value [1, 13] was 90 and the “Plant response rating, Ryegrass, Italian” value [1, 14] was 100. For the same compound, the “Plant response rating, Ryegrass, Italian” value [1, 15] was 100, the “Plant response rating, Ryegrass, Italian” value [1, 16] was 90 and the “Plant response rating, Ryegrass, Italian” value [1, 17] was 90. The “Plant response rating, Ryegrass, Italian” value [1, 18] was 90, the “Ryegrass, Italian plant response rating” value ([1]; Preemergence, scale 0 to 100) was 90 and the “Plant response rating, Russian Thistle” value ([2]; 16 g ai/ha, scale 0 to 100 (0 no effect, 100 complete control)) was 0. The “Plant response rating, Russian Thistle” value ([2]; 31 g ai/ha, scale 0 to 100 (0 no effect, 100 complete control)) was 0, the “Plant response rating, Russian Thistle” value ([2]; 62 g ai/ha, scale 0 to 100) was 0 and the “Russian Thistle plant response rating” value ([2]; 8 g ai/ha, scale 0 to 100) was 0. For the same compound, the “Bermudagrass plant response rating” value ([3]; postemergence, 0-100 scale) was 20, the “Plant response rating, Bermudagrass” value [3, 13] was 45 and the “Plant response rating, Bermudagrass” value [3, 14] was 65. The “Bermudagrass plant response rating” value ([3]; Preemergence, scale 0 to 100 (0 no effect, 100 complete control)) was 0, the “Plant response rating, Bermudagrass” value [3, 16] was 0 and the “Plant response rating, Bermudagrass” value [3, 19] was 65. For the same compound, the “Plant response rating, Bermudagrass” value [3, 18] was 95, the “Cocklebur plant response rating” value ([4]; postemergence, 0-100 scale) was 0 and the “Plant response rating, Cocklebur” value [4, 13] was 0. The “Plant response rating, Cocklebur” value [4, 14] was 0, the “Plant response rating, Cocklebur” value [4, 15] was 0 and the “Plant response rating, Cocklebur” value [4, 16] was 0. For the same compound, the “Plant response rating, Cocklebur” value [4, 19] was 0, the “Plant response rating, Cocklebur” value [4, 18] was 0 and the “Cocklebur plant response rating” value ([4]; Preemergence, scale 0 to 100) was 0. The “Ragweed plant response rating” value ([5]; postemergence, 0-100 scale) was 0, the “Plant response rating, Ragweed” value [5, 13] was 0 and the “Plant response rating, Ragweed” value [5, 14] was 0. The “Plant response rating, Ragweed” value [5, 15] was 0, the “Plant response rating, Ragweed” value [5, 16] was 0 and the “Plant response rating, Ragweed” value [5, 17] was 0. The “Plant response rating, Ragweed” value [5, 18] was 0, the “Ragweed plant response rating” value ([5]; Preemergence, scale 0 to 100) was 0 and the “Goosegrass plant response rating” value ([6]; postemergence, 0-100 scale) was 60. The “Plant response rating, Goosegrass” value [6, 13] was 70, the “Plant response rating, Goosegrass” value [6, 14] was 75 and the “Plant response rating, Goosegrass” value [6, 15] was 85. For the same compound, the “Plant response rating, Goosegrass” value [6, 16] was 75, the “Plant response rating, Goosegrass” value [6, 19] was 98 and the “Plant response rating, Goosegrass” value [6, 18] was 100. For the same compound, the “Goosegrass plant response rating” value ([6]; Preemergence, scale 0 to 100) was 65, the “Lambsquarters plant response rating” value ([7]; postemergence, 0-100 scale) was 0 and the “Plant response rating, Lambsquarters” value [7, 13] was 0. For the same compound, the “Plant response rating, Lambsquarters” value [7, 14] was 0, the “Plant response rating, Lambsquarters” value [7, 15] was 0 and the “Plant response rating, Lambsquarters” value [7, 16] was 0. For the same compound, the “Plant response rating, Lambsquarters” value [7, 19] was 0, the “Plant response rating, Lambsquarters” value [7, 18] was 0 and the “Lambsquarters plant response rating” value ([7]; Preemergence, scale 0 to 100) was 0. For the same compound, the “Crabgrass, Large plant response rating” value ([8]; postemergence, 0-100 scale) was 65, the “Plant response rating, Crabgrass, Large” value [8, 13] was 70 and the “Plant response rating, Crabgrass, Large” value [8, 14] was 75. The “Plant response rating, Crabgrass, Large” value [8, 15] was 85, the “Plant response rating, Crabgrass, Large” value [8, 16] was 65 and the “Plant response rating, Crabgrass, Large” value [8, 19] was 98. For the same compound, the “Plant response rating, Crabgrass, Large” value [8, 18] was 100, the “Crabgrass, Large plant response rating” value ([8]; Preemergence, scale 0 to 100) was 15 and the “Soybean plant response rating” value (soybean (Glycine max); postemergence, 0-100 scale) was 0. For the same compound, the “Plant response rating, Soybean” value (soybean (Glycine max); [13]) was 0, the “Plant response rating, Soybean” value (soybean (Glycine max); [15]) was 0 and the “Plant response rating, Soybean” value (soybean (Glycine max); [16]) was 0. For the same compound, the “Plant response rating, Soybean” value (soybean (Glycine max); [17]) was 0, the “Plant response rating, Soybean” value (soybean (Glycine max); [18]) was 0 and the “Soybean plant response rating” value (soybean (Glycine max); Preemergence, scale 0 to 100) was 0. For the same compound, the “Velvetleaf plant response rating” value ([9]; postemergence, 0-100 scale) was 0, the “Plant response rating, Velvetleaf” value [9, 13] was 0 and the “Plant response rating, Velvetleaf” value [9, 15] was 0. For the same compound, the “Plant response rating, Velvetleaf” value [9, 16] was 0, the “Plant response rating, Velvetleaf” value [9, 17] was 0 and the “Plant response rating, Velvetleaf” value ([9]; Preemergence, 62 g ai/ha, 0 to 100 scale, 0 no effect, 100 complete control) was 0. The “Velvetleaf plant response rating” value ([9]; Preemergence, scale 0 to 100) was 0, the “Plant response rating, Barnyardgrass” value [10, 20] was 50 and the “Plant response rating, Barnyardgrass” value [10, 21] was 75. The “Plant response rating, Barnyardgrass” value [10, 22] was 40, the “Plant response rating, Ducksalad” value [11, 20] was 0 and the “Plant response rating, Ducksalad” value [11, 21] was 0. For the same compound, the “Plant response rating, Ducksalad” value [11, 23] was 30, the “Plant response rating, Ducksalad” value [11, 22] was 0 and the “Plant response rating, Rice” value (rice (Oryza sativa); [20]) was 15. For the same compound, the “Plant response rating, Rice” value (rice (Oryza sativa); [21]) was 20, the “Plant response rating, Rice” value (rice (Oryza sativa); [23]) was 20 and the “Plant response rating, Rice” value (rice (Oryza sativa); [22]) was 0. The “Plant response rating, Sedge, Umbrella” value [12, 20] was 0, the “Plant response rating, Sedge, Umbrella” value [12, 21] was 0 and the “Plant response rating, Sedge, Umbrella” value [12, 23] was 0. The “Plant response rating, Sedge, Umbrella” value [12, 22] was 0.
